Data published in US8030478B2, “Method for nucleic acid replication and novel artificial base pairs” (priority 2005, dated 2011).
Read-outs that look alike come from different tables or passages of the source. Marks after values point to notes of the source that are not given here.

Target: T7 RNA polymerase (Escherichia phage T7, UniProt P00573)
Conditions: [α-32P]ATP, natural NTP 1 mM; for Composition of nucleotide incorporated as 5′ neighbor of A: Gp: theoretical [2]
[1] = Entry 1, template temp35Ds-3, Pa 1 mM, theoretical [0]
[2] = Entry 1, template temp35Ds-3, Pa 1 mM, theoretical [1]
[3] = Entry 2, template temp35Ds-3, Pa 3 mM, theoretical [0]
[4] = Entry 2, template temp35Ds-3, Pa 3 mM, theoretical [1]
[5] = Entry 3, template temp35A-3, Pa 1 mM, theoretical [0]
[6] = Entry 3, template temp35A-3, Pa 1 mM, theoretical [1]
[7] = Entry 4, template temp35A-3, Pa 3 mM, theoretical [0]
[8] = Entry 4, template temp35A-3, Pa 3 mM, theoretical [1]
[9] = Entry 5, template temp35G-3, Pa 1 mM, theoretical [0]
[10] = Entry 5, template temp35G-3, Pa 1 mM, theoretical [1]
[11] = Entry 6, template temp35G-3, Pa 3 mM, theoretical [0]
[12] = Entry 6, template temp35G-3, Pa 3 mM, theoretical [1]

Sequence of T7 RNA polymerase (P00573 whole entry): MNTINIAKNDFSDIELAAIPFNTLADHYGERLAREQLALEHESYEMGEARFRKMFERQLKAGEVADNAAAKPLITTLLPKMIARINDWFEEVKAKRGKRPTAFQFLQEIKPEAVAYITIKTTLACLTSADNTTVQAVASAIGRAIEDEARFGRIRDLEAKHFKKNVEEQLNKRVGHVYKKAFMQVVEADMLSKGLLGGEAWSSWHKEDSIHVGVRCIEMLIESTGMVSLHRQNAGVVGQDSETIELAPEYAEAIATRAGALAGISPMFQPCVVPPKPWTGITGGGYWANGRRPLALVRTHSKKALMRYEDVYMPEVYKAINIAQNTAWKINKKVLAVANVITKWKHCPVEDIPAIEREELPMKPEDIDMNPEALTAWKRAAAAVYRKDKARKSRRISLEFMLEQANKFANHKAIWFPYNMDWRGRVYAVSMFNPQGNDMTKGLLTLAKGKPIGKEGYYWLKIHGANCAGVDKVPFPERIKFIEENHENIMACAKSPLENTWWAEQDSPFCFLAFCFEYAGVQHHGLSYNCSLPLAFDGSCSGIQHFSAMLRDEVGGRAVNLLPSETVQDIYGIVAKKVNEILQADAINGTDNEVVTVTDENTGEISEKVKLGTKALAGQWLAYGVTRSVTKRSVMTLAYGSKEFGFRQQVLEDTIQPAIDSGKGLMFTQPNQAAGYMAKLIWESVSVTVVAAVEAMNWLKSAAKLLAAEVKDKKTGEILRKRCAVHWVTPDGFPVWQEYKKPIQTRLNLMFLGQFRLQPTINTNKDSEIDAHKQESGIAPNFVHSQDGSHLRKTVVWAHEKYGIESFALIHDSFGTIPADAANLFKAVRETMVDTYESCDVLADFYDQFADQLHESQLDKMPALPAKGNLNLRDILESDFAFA

Compound: O=Cc1cccn1[C@@H]1O[C@H](COP(=O)(O)OP(=O)(O)OP(=O)(O)O)[C@@H](O)[C@H]1O [PaTP, 1-(β-D-Ribofuranosyl)pyrrole-2-carbaldehyde 5′-triphosphate]
- Composition of nucleotide incorporated as 5′ neighbor of A: Cp [1]: 0.01 [0]
- Composition of nucleotide incorporated as 5′ neighbor of A: Up [1]: 0.02 [0]
- Composition of nucleotide incorporated as 5′ neighbor of A: Ap [2]: 1.03^c [1]^d
- Composition of nucleotide incorporated as 5′ neighbor of A: Np (Pap) [2]: 0.97 [1]
- Composition of nucleotide incorporated as 5′ neighbor of A: Gp (Entry 1, template temp35Ds-3, Pa 1 mM): 1.97 [2]
- Composition of nucleotide incorporated as 5′ neighbor of A: Cp [3]: 0.01 [0]
- Composition of nucleotide incorporated as 5′ neighbor of A: Up [3]: 0.01 [0]
- Composition of nucleotide incorporated as 5′ neighbor of A: Ap [4]: 1.01 [1]
- Composition of nucleotide incorporated as 5′ neighbor of A: Np (Pap) [4]: 1.00 [1]
- Composition of nucleotide incorporated as 5′ neighbor of A: Gp (Entry 2, template temp35Ds-3, Pa 3 mM): 1.96 [2]
- Composition of nucleotide incorporated as 5′ neighbor of A: Cp [5]: n.d.^f [0]
- Composition of nucleotide incorporated as 5′ neighbor of A: Np (Pap) [5]: n.d. [0]
- Composition of nucleotide incorporated as 5′ neighbor of A: Ap [6]: 0.99 [1]
- Composition of nucleotide incorporated as 5′ neighbor of A: Up [6]: 1.04 [1]
- Composition of nucleotide incorporated as 5′ neighbor of A: Gp (Entry 3, template temp35A-3, Pa 1 mM): 1.96 [2]
- Composition of nucleotide incorporated as 5′ neighbor of A: Cp [7]: n.d. [0]
- Composition of nucleotide incorporated as 5′ neighbor of A: Np (Pap) [7]: n.d. [0]
- Composition of nucleotide incorporated as 5′ neighbor of A: Ap [8]: 0.99 [1]
- Composition of nucleotide incorporated as 5′ neighbor of A: Up [8]: 1.03 [1]
- Composition of nucleotide incorporated as 5′ neighbor of A: Gp (Entry 4, template temp35A-3, Pa 3 mM): 1.97 [2]
- Composition of nucleotide incorporated as 5′ neighbor of A: Np (Pap) [9]: n.d. [0]
- Composition of nucleotide incorporated as 5′ neighbor of A: Up [9]: 0.01 [0]
- Composition of nucleotide incorporated as 5′ neighbor of A: Ap [10]: 1.02 [1]
- Composition of nucleotide incorporated as 5′ neighbor of A: Cp [10]: 1.01 [1]
- Composition of nucleotide incorporated as 5′ neighbor of A: Gp (Entry 5, template temp35G-3, Pa 1 mM): 1.96 [2]
- Composition of nucleotide incorporated as 5′ neighbor of A: Np (Pap) [11]: n.d. [0]
- Composition of nucleotide incorporated as 5′ neighbor of A: Up [11]: 0.01 [0]
- Composition of nucleotide incorporated as 5′ neighbor of A: Ap [12]: 1.01 [1]
- Composition of nucleotide incorporated as 5′ neighbor of A: Cp [12]: 1.00 [1]
- Composition of nucleotide incorporated as 5′ neighbor of A: Gp (Entry 6, template temp35G-3, Pa 3 mM): 1.98 [2]
